Measurements taken from ChEMBL document CHEMBL3396997, “Piperidine-3,4-diol and piperidine-3-ol derivatives of pyrrolo[2,1-f][1,2,4]triazine as inhibitors of anaplastic lymphoma kinase” (Bioorg Med Chem Lett, 2015).
≈ marks a conversion by molar mass, not a printed value. Blank lines part the entries; values can stand above or below the compound they belong to. Calls of active or inactive are those of the source. The calls are words filed in the database; no cut-off is given here.

Assays:
[1] = Half life in mouse liver microsomes; type: ADME
[2] = Half life in rat liver microsomes; type: ADME
[3] = Half life in monkey liver microsomes; type: ADME, Macaca mulatta; details: rhesus monkey
[4] = Half life in human liver microsomes; type: ADME
[5] = Solubility in water at neutral pH; type: physicochemical
[6] = target: Voltage-gated inwardly rectifying potassium channel KCNH2 (Homo sapiens, UniProt Q12809); experiment: Inhibition of human ERG by patch clamp cellular assay
Mus musculus [7] = experiment: Toxicity in human SUP-M2 cells xenografted SCID mouse assessed as body weight loss at 30 mg/kg, po BID for 10 days; type: organism-based; design: dose 30 mg/kg, route oral; details: in vivo, 240 h
Mus musculus [8] = experiment: Toxicity in human SUP-M2 cells xenografted SCID mouse assessed as body weight loss at 55 mg/kg, po BID for 10 days; type: organism-based; design: dose 55 mg/kg, route oral; details: in vivo, 240 h
Mus musculus [9] = experiment: Toxicity in human SUP-M2 cells xenografted SCID mouse assessed as incidences of overt toxicity at 30 mg/kg, po BID for 10 days; type: organism-based; design: dose 30 mg/kg, route oral; details: in vivo, 240 h
Mus musculus [10] = experiment: Toxicity in human SUP-M2 cells xenografted SCID mouse assessed as incidences of overt toxicity at 55 mg/kg, po BID for 10 days; type: organism-based; design: dose 55 mg/kg, route oral; details: in vivo, 240 h
Cytochrome P450 2C9 = Cytochrome P450 2C9 (Homo sapiens, UniProt P11712); experiment: Inhibition of CYP2C9 (unknown origin); type: ADME
Cytochrome P450 2C19 = Cytochrome P450 2C19 (Homo sapiens, UniProt P33261); experiment: Inhibition of CYP2C19 (unknown origin); type: ADME
Cytochrome P450 3A4 = Cytochrome P450 3A4 (Homo sapiens, UniProt P08684); experiment: Inhibition of CYP3A4 (unknown origin); type: ADME
Cytochrome P450 1A2 = target: T1, Cytochrome P450 1A2 (Homo sapiens, UniProt P05177); experiment: Inhibition of CYP1A2 (unknown origin); type: ADME
T1 sequence (P05177 whole entry): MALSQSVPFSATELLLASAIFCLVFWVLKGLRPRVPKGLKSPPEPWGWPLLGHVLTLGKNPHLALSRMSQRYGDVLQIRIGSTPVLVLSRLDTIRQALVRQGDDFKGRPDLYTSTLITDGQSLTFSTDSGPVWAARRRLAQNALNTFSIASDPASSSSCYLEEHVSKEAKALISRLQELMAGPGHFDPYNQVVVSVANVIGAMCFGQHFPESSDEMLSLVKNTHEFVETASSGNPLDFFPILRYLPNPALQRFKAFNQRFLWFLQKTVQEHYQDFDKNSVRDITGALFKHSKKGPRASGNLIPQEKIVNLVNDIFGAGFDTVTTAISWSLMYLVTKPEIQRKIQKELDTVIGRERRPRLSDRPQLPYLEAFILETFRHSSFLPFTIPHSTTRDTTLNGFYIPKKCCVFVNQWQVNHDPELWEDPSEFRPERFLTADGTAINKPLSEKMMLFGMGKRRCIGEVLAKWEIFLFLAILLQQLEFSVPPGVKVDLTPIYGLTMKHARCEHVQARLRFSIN

Cytochrome P450 2D6 = Cytochrome P450 2D6 (Homo sapiens, UniProt P10635); experiment: Inhibition of CYP2D6A (unknown origin); type: ADME
Plasma [11] = experiment: (§1) Plasma concentration in human SUP-M2 cells xenografted SCID mouse at 30 mg/kg, po measured after 2 hrs; type: ADME, organism-based; design: dose 30 mg/kg, route oral; details: in vivo, 2 h
Plasma [12] = experiment: (§2) Plasma concentration in human SUP-M2 cells xenografted SCID mouse at 30 mg/kg, po measured after 6 hrs; type: ADME, organism-based; design: dose 30 mg/kg, route oral; details: in vivo, 6 h
Brain [13] = experiment: (§3) Drug concentration in brain of human SUP-M2 cells xenografted SCID mouse at 30 mg/kg, po measured after 2 hrs; type: ADME, organism-based; design: dose 30 mg/kg, route oral; details: in vivo, 2 h
Brain [14] = experiment: (§4) Drug concentration in brain of human SUP-M2 cells xenografted SCID mouse at 30 mg/kg, po measured after 6 hrs; type: ADME, organism-based; design: dose 30 mg/kg, route oral; details: in vivo, 6 h
[15] = Plasma concentration in human SUP-M2 cells xenografted SCID mouse at 30 mg/kg, po measured after 16 hrs; type: ADME, organism-based; design: dose 30 mg/kg, route oral
[16] = Drug concentration in brain of human SUP-M2 cells xenografted SCID mouse at 30 mg/kg, po measured after 16 hrs; type: ADME, organism-based; design: dose 30 mg/kg, route oral; details: read-out: Drug uptake
SUP-M2 [17] = experiment: Antitumor activity against human SUP-M2 cells xenografted in SCID mouse assessed as induction of tumor regression at 30 mg/kg, po BID for 10 days; type: functional, organism-based; design: dose 30 mg/kg
SUP-M2 [18] = experiment: Antitumor activity against human SUP-M2 cells xenografted in SCID mouse assessed as induction of tumor regression at 55 mg/kg, po BID for 10 days; type: functional, organism-based; design: dose 55 mg/kg
[19] = Half life in Sprague-Dawley rat at 1 mg/kg, iv; type: ADME, organism-based; design: dose 1 mg/kg, route intravenous; details: in vivo
[20] = AUC (0 to infinity) in Sprague-Dawley rat at 1 mg/kg, iv; type: ADME, organism-based; design: time infinity, dose 1 mg/kg, route intravenous; details: plasma
[21] = Volume of distribution in Sprague-Dawley rat at 1 mg/kg, iv; type: ADME, organism-based; design: dose 1 mg/kg, route intravenous; details: in vivo
[22] = Clearance in Sprague-Dawley rat at 1 mg/kg, iv; type: ADME, organism-based; design: dose 1 mg/kg, route intravenous; details: in vivo
[23] = Cmax in Sprague-Dawley rat at 5 mg/kg, po; type: ADME, organism-based; design: dose 5 mg/kg, route oral; details: in vivo
[24] = Tmax in Sprague-Dawley rat at 5 mg/kg, po; type: ADME, organism-based; design: dose 5 mg/kg, route oral; details: in vivo
[25] = AUC (0 to infinity) in Sprague-Dawley rat at 5 mg/kg, po; type: ADME, organism-based; design: time infinity, dose 5 mg/kg, route oral; details: plasma
[26] = Oral bioavailability in Sprague-Dawley rat at 5 mg/kg; type: ADME, organism-based; details: in vivo
[27] = as §1; type: ADME, organism-based; design: dose 30 mg/kg, route oral; details: SCID, plasma
[28] = as §2; type: ADME, organism-based; design: dose 30 mg/kg, route oral; details: SCID, plasma
[29] = Plasma concentration in human SUP-M2 cells xenografted SCID mouse at 30 mg/kg, po measured after 12 hrs; type: ADME, organism-based; design: dose 30 mg/kg, route oral
[30] = Plasma concentration in human SUP-M2 cells xenografted SCID mouse at 30 mg/kg, po measured after 24 hrs; type: ADME, organism-based; design: dose 30 mg/kg, route oral
[31] = as §3; type: ADME, organism-based; design: dose 30 mg/kg, route oral; details: SCID, brain, read-out: Drug uptake
[32] = as §4; type: ADME, organism-based; design: dose 30 mg/kg, route oral; details: SCID, brain, read-out: Drug uptake
[33] = Drug concentration in brain of human SUP-M2 cells xenografted SCID mouse at 30 mg/kg, po measured after 12 hrs; type: ADME, organism-based; design: dose 30 mg/kg, route oral; details: read-out: Drug uptake
[34] = Drug concentration in brain of human SUP-M2 cells xenografted SCID mouse at 30 mg/kg, po measured after 24 hrs; type: ADME, organism-based; design: dose 30 mg/kg, route oral; details: read-out: Drug uptake

Chain of Voltage-gated inwardly rectifying potassium channel KCNH2 (Q12809 whole entry): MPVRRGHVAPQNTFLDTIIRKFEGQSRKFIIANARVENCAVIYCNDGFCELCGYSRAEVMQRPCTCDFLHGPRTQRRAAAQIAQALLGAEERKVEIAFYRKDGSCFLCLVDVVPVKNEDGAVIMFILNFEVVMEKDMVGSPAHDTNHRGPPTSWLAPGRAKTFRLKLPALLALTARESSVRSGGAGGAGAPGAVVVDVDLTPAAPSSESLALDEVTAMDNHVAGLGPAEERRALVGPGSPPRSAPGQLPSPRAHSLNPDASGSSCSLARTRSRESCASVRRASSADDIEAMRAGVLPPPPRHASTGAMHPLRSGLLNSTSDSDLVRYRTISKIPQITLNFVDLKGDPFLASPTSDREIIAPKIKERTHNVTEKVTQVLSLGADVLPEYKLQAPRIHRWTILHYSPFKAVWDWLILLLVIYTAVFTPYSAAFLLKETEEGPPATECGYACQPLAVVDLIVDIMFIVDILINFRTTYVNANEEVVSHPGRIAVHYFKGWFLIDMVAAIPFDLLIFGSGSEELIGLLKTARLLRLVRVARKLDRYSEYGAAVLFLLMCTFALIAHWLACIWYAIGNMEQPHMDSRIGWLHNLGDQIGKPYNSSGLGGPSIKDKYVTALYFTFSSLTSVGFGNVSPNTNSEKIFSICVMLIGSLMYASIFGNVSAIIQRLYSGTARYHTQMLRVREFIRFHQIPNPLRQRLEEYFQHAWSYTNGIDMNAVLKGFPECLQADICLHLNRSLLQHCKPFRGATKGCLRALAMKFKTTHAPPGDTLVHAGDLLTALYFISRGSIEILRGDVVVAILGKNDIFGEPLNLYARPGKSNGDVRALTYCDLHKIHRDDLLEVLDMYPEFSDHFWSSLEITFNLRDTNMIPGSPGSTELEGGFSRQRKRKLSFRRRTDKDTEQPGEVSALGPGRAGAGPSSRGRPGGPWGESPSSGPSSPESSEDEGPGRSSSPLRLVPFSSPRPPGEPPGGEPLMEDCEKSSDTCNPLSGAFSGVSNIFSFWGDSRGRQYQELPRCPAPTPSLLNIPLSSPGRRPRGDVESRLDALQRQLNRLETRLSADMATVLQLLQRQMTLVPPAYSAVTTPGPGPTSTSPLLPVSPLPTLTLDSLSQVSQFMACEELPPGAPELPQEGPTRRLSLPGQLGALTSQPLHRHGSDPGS
Chain of Cytochrome P450 2D6 (P10635 whole entry): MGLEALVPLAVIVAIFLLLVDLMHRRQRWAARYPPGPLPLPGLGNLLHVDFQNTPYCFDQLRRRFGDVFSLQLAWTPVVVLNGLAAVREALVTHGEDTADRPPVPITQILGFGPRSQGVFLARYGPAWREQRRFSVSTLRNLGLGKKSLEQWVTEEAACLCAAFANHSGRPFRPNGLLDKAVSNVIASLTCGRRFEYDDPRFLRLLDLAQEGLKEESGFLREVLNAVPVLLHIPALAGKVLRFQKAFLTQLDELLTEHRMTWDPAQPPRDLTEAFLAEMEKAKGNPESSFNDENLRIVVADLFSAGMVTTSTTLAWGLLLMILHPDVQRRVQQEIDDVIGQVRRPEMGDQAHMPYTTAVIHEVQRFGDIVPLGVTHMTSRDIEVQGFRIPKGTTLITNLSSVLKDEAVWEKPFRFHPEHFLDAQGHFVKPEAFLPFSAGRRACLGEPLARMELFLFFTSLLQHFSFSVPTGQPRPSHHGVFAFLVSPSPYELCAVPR
Chain of Cytochrome P450 3A4 (P08684 whole entry): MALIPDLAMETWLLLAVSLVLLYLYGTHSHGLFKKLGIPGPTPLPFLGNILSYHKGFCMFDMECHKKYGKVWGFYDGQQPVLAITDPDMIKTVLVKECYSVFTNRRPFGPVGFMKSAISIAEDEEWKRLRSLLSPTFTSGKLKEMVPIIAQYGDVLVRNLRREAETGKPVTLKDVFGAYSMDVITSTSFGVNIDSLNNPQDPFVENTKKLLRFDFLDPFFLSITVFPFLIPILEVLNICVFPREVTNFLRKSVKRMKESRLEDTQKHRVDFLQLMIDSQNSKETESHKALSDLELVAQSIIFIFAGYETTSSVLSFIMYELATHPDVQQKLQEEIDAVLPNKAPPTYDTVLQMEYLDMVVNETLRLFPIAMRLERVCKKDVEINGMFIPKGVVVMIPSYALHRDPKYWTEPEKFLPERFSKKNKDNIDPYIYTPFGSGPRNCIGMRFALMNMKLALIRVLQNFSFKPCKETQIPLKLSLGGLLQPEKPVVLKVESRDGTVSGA
Chain of Cytochrome P450 2C9 (P11712 whole entry): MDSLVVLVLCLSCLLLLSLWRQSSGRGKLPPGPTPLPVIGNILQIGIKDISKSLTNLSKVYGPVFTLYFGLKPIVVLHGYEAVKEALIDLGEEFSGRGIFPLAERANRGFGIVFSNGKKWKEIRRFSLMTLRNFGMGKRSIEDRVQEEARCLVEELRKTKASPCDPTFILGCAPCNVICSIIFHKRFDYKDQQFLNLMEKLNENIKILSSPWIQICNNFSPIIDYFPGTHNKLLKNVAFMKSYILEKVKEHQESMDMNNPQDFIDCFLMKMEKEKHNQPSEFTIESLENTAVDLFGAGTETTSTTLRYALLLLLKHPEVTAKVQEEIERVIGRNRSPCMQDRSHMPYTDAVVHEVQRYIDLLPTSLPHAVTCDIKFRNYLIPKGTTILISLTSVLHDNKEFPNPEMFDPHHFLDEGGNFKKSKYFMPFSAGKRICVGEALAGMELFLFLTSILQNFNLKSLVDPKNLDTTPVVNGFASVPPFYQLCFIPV
Chain of Cytochrome P450 2C19 (P33261 whole entry): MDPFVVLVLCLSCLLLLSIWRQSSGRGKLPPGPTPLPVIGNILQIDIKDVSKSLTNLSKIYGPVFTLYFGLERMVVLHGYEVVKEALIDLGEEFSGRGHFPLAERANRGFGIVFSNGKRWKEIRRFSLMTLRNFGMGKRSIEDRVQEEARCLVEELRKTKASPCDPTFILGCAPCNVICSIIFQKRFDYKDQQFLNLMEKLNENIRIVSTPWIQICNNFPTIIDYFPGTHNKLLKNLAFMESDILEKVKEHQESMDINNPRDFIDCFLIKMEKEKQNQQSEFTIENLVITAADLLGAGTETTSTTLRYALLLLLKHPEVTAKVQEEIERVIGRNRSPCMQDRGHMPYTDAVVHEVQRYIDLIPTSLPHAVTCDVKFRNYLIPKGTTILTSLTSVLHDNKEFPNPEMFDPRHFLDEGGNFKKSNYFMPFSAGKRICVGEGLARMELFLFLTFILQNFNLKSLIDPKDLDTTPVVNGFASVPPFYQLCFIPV

half-life [1]: > 40 min
half-life [2]: > 40 min
half-life [3]: > 40 min
half-life [4]: > 40 min
Structure (SMILES): COc1cc([C@@]2(O)CCNC[C@@H]2O)ccc1Nc1ncc2ccc(-c3ccccc3OC)n2n1

IC50 (Cytochrome P450 2C9): 19 µM
IC50 (Cytochrome P450 2C19): 17 µM
IC50 (Cytochrome P450 3A4): 12 µM
IC50 (Cytochrome P450 1A2): > 30 µM
IC50 (Cytochrome P450 2D6): > 30 µM
Cp (Plasma [11]): 407 ng/mL
Cp (Plasma [12]): 573 ng/mL
Drug uptake (Brain [13]): 1217 ng/g
Drug uptake (Brain [14]): 3150 ng/g
concentration at 16 h [15]: 567 ng/mL
concentration at 16 h [16]: 16100 ng/g
Structure (SMILES): COc1cc([C@H]2CCN(CCO)C[C@@H]2O)ccc1Nc1ncc2ccc(-c3ccccc3OC)n2n1 [listing 1 of 2 here]
IC50 [6]: 6.8 µM
Activity (Mus musculus [7]): Non-toxic
Activity (Mus musculus [8]): Non-toxic
Activity (Mus musculus [9]): Non-toxic
Activity (Mus musculus [10]): Non-toxic

half-life [1]: 18 min
half-life [2]: > 40 min
half-life [3]: 22 min
half-life [4]: > 40 min
Structure (SMILES): COc1cc(C2CCN(C)CC2O)ccc1Nc1ncc2ccc(-c3ccccc3OC)n2n1 (racemic)

half-life [1]: 37 min
half-life [2]: > 40 min
half-life [3]: > 40 min
half-life [4]: > 40 min
solubility [5]: 50 µg/mL (≈ 102 µM)
half-life [19]: 150 min
AUC(0-inf) [20]: 371 ng·h/mL
Vd [21]: 9.9 L/kg
clearance [22]: 46 mL/min/kg
Cmax [23]: 85 ng/mL
Tmax [24]: 360 min
AUC(0-inf) [25]: 479 ng·h/mL
bioavailability [26]: 26%
concentration at 2 h [27]: 389 ng/mL
concentration at 6 h [28]: 201 ng/mL
concentration at 12 h [29]: 164 ng/mL
concentration at 24 h [30]: 19 ng/mL
concentration at 2 h [31]: 1650 ng/g
concentration at 6 h [32]: 1770 ng/g
concentration at 12 h [33]: 2520 ng/g
concentration at 24 h [34]: 1580 ng/g
Structure (SMILES): COc1cc([C@@H]2CCN(CCO)C[C@@H]2O)ccc1Nc1ncc2ccc(-c3ccccc3OC)n2n1 (racemic)

half-life [1]: > 40 min
half-life [2]: > 40 min
half-life [3]: > 40 min
half-life [4]: > 40 min
Structure (SMILES): COc1cc([C@@H]2CCNC[C@@H]2O)ccc1Nc1ncc2ccc(-c3ccccc3OC)n2n1 (relative stereo)

half-life [1]: > 40 min
half-life [2]: 34 min
half-life [3]: 7 min
half-life [4]: 19 min
solubility [5]: 2 µg/mL (≈ 3.98 µM)
Structure (SMILES): COc1cc([C@@H]2CCN(CC(N)=O)C[C@@H]2O)ccc1Nc1ncc2ccc(-c3ccccc3OC)n2n1 (relative stereo)

half-life [1]: > 40 min
half-life [2]: > 40 min
half-life [3]: 30 min
half-life [4]: > 40 min
half-life [19]: 192 min
AUC(0-inf) [20]: 459 ng·h/mL
Vd [21]: 10.3 L/kg
clearance [22]: 39 mL/min/kg
Cmax [23]: 97 ng/mL
Tmax [24]: 240 min
AUC(0-inf) [25]: 708 ng·h/mL
bioavailability [26]: 31%
concentration at 2 h [27]: 523 ng/mL
concentration at 6 h [28]: 361 ng/mL
concentration at 12 h [29]: 213 ng/mL
concentration at 24 h [30]: 55 ng/mL
concentration at 2 h [31]: 1960 ng/g
concentration at 6 h [32]: 3930 ng/g
concentration at 12 h [33]: 2670 ng/g
concentration at 24 h [34]: 1280 ng/g
Structure (SMILES): COc1cc([C@H]2CCN(CCO)C[C@@H]2O)ccc1Nc1ncc2ccc(-c3ccccc3OC)n2n1 (relative stereo)

concentration at 2 h [27]: 355 ng/mL
concentration at 6 h [28]: 148 ng/mL
concentration at 2 h [31]: 1030 ng/g
concentration at 6 h [32]: 1160 ng/g
concentration at 16 h [15]: 51 ng/mL
concentration at 16 h [16]: 2210 ng/g
Structure (SMILES): COc1cc(C2CCN(CCO)CC2O)ccc1Nc1ncc2ccc(-c3ccccc3OC)n2n1 (single isomer, unassigned; enantiomer 1)

Continued, compound first:

Structure (SMILES): COc1cc([C@@]2(O)CCNC[C@@H]2O)ccc1Nc1ncc2ccc(-c3ccccc3N(C)S(C)(=O)=O)n2n1
half-life [1]: > 40 min
half-life [2]: > 40 min
half-life [3]: 25 min
half-life [4]: > 40 min

Structure (SMILES): COc1cc([C@@]2(O)CCN(CC(N)=O)C[C@@H]2O)ccc1Nc1ncc2ccc(-c3ccccc3N(C)S(C)(=O)=O)n2n1
half-life [1]: > 40 min
half-life [2]: 26 min
half-life [3]: 8 min
half-life [4]: 32 min
solubility [5]: ≥ 33 µg/mL

Structure (SMILES): COc1cc([C@@]2(O)CCN(CC(N)=O)C[C@@H]2O)ccc1Nc1ncc2ccc(-c3ccccc3OC)n2n1
half-life [1]: > 40 min
half-life [2]: 31 min
half-life [3]: 17 min
half-life [4]: > 40 min
solubility [5]: ≥ 33 µg/mL

Structure (SMILES): COc1cc([C@H]2CCN(CCO)C[C@@H]2O)ccc1Nc1ncc2ccc(-c3ccccc3OC)n2n1 [listing 2 of 2 here]
inhibition (SUP-M2 [17]): Active
inhibition (SUP-M2 [18]): Active

Structure (SMILES): COc1cc([C@@]2(O)CCN(C)C[C@@H]2O)ccc1Nc1ncc2ccc(-c3ccccc3OC)n2n1 (relative stereo)
IC50 [6]: Active
half-life [1]: > 40 min
half-life [2]: > 40 min
half-life [3]: 32 min
half-life [4]: > 40 min
